Test results published in ChEMBL document CHEMBL1138111, “Reduction of CYP450 inhibition in the 4-[(1H-imidazol-4-yl)methyl]piperidine series of histamine H3 receptor antagonists” (Bioorg Med Chem Lett, 2006).

Tests used:
Histamine H3 receptor [1] = biological target: T1, Histamine H3 receptor (Cavia porcellus, UniProt Q9JI35); assay: Displacement of [3H]N-alpha-methylhistamine from guinea pig histamine H3 receptor
Cytochrome P450 2D6 [2] = biological target: T2, Cytochrome P450 2D6 (Homo sapiens, UniProt P10635); assay: Inhibition of CYP2D6 by supersome assay; format: ADME
T2 sequence (P10635 whole entry): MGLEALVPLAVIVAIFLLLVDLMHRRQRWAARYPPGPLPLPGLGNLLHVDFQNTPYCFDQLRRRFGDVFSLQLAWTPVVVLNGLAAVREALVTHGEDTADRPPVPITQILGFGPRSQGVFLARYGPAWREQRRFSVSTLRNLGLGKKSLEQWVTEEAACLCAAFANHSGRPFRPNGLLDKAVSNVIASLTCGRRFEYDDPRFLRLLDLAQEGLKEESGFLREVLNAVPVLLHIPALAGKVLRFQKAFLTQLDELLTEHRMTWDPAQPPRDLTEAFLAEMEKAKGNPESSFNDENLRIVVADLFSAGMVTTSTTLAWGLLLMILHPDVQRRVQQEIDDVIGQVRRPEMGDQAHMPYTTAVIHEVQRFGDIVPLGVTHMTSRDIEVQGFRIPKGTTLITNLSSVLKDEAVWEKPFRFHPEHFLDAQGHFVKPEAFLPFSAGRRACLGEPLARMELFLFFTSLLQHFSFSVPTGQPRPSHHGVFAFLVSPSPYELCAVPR

Histamine H3 receptor [3] = biological target: T1, Histamine H3 receptor; assay: Antagonistic activity against histamine H3 receptor in guinea pig ileum; format: functional, tissue-based; details: read-out: pA2 (converted)
Cytochrome P450 2D6 [4] = biological target: T2, Cytochrome P450 2D6; assay: Inhibition of CYP2D6 by human liver microsome assay; format: ADME, microsomes
[5] = Plasma AUC (0-6 h) in rat at 10 mg/kg, po; format: ADME, organism-based; set-up: time < 6 hr, dose 10 mg/kg, route oral
Cytochrome P450 3A4 = Cytochrome P450 3A4 (Homo sapiens, UniProt P08684); assay: Inhibitory activity against CYP3A4; format: ADME
Sequence of Cytochrome P450 3A4 (P08684 whole entry): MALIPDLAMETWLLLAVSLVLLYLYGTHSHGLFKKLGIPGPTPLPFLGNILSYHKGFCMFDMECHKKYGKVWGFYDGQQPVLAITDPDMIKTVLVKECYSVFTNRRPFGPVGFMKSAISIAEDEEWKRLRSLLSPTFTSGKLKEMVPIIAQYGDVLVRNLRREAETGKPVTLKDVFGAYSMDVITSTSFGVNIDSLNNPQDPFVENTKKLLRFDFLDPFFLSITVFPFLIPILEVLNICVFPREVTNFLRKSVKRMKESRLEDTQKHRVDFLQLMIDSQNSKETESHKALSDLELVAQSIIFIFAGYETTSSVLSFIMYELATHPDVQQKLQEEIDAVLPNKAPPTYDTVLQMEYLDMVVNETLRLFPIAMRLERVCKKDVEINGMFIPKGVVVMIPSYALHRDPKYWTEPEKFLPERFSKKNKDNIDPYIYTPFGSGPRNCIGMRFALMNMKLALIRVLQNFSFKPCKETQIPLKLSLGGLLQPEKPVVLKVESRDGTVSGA

[6] = Plasma AUC (0-24 h) in monkey at 3 mg/kg, po; format: ADME, organism-based, Macaca mulatta; set-up: time < 24 hr, dose 3 mg/kg, route oral; details: rhesus monkey

T1 sequence (Q9JI35 whole entry): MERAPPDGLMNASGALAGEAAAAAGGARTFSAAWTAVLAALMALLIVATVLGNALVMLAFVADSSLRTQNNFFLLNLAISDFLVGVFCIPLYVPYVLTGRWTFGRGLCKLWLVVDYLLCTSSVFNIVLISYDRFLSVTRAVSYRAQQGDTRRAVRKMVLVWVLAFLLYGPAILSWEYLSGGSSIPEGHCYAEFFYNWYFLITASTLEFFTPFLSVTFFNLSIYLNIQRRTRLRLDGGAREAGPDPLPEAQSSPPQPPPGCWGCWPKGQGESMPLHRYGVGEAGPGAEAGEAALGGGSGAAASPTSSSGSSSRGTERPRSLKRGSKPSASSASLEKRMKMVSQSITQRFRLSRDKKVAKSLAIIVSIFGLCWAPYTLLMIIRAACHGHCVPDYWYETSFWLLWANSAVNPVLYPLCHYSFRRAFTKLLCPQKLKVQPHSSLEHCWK

Structure (SMILES) | Ki (Histamine H3 receptor [1]) [nM] | IC50 (Cytochrome P450 2D6 [2]) [nM] | Kb (Histamine H3 receptor [3]) [nM] | IC50 (Cytochrome P450 2D6 [4]) [nM] | AUC(0-t) at 6 h [5] [µM·h] | IC50 (Cytochrome P450 3A4) [nM] | AUC(0-t) at 24 h [6] [µM·h]
c1ncc(CC2CCN(CCCOc3ccc(CCN4CCCCC4)cc3)CC2)[nH]1 | 3 | 1000 | 3.16 | – | – | – | –
c1cc(OCCCN2CCC(Cc3cnc[nH]3)CC2)cc(OC2CCCCC2)c1 | 3 | – | – | 2000 | – | – | –
O=C(CCc1ccc(CN2CCCCC2)cc1)N1CCC(Cc2c[nH]cn2)CC1 | 45 | – | – | 3000 | – | – | –
c1ncc(-c2ccc(OCCCN3CCC(Cc4cnc[nH]4)CC3)cc2)cn1 | 9 | – | – | 4000 | – | – | –
NC(=O)C1CCN(Cc2ccc(OCCCN3CCC(Cc4c[nH]cn4)CC3)cc2)CC1 | 16 | > 30000 | 25.1 | – | – | – | –
c1cc(CN2CCCCC2)cc(OCCCN2CCC(Cc3cnc[nH]3)CC2)c1 | 1 | – | 3.98 | 3000 | – | – | –
O=C(Nc1ncccn1)N1CCC(Cc2c[nH]cn2)CC1 | 8 | – | 25.1 | 6000 | – | – | –
c1ncc(CC2CCN(CCCOc3ccc(N4CCNCC4)cc3)CC2)[nH]1 | 12 | – | – | > 20000 | – | – | –
O=C(Nc1nccs1)N1CCC(Cc2cnc[nH]2)CC1 | 4 | – | 25.1 | 2000 | 1.03 | – | –
O=C1CCCCN1Cc1ccc(OCCCN2CCC(Cc3cnc[nH]3)CC2)cc1 | 34 | 5000 | – | – | – | – | –
c1ncc(CC2CCN(CCOc3ccc(CN4CCCCC4)cc3)CC2)[nH]1 | 5 | – | – | 3000 | – | – | –
O=C(c1ccc(OCCCN2CCC(Cc3cnc[nH]3)CC2)cc1)N1CCNCC1 | 23 | – | 15.8 | > 20000 | – | – | –
O=C(CCOc1ccc(CN2CCCCC2)cc1)N1CCC(Cc2cnc[nH]2)CC1 | 315 | – | – | 1000 | 1.83 | – | –
CN(C)CCCOc1ccc(CN2CCCCC2)cc1 | 33 | – | 31.6 | > 30000 | – | > 30000 | –
c1cnc2ccc(OCCCN3CCC(Cc4cnc[nH]4)CC3)cc2c1 | 52 | – | – | 2000 | – | – | –
c1ncc(CC2CCN(CCCOc3ccc(CN4CCC(N5CCCCC5)CC4)cc3)CC2)[nH]1 | 3 | – | – | > 30000 | – | – | –
O=C(CCOc1ccc(C(=O)N2CCNCC2)cc1)N1CCC(Cc2c[nH]cn2)CC1 | – | – | – | 30000 | – | – | –

Structure (SMILES) | Ki (Histamine H3 receptor [1]) [nM] | IC50 (Cytochrome P450 2D6 [2]) [nM] | Kb (Histamine H3 receptor [3]) [nM] | IC50 (Cytochrome P450 2D6 [4]) [nM] | AUC(0-t) at 6 h [5] [µM·h] | IC50 (Cytochrome P450 3A4) [nM] | AUC(0-t) at 24 h [6] [µM·h]
c1nc(CC2CCN(CCCOc3ccc(CN4CCCCC4)cc3)CC2)c[nH]1 | 3 | – | 2.51 | 14000 | – | – | 3.2
CN(C)CCCOc1ccc(CN2CCC(Cc3cnc[nH]3)CC2)cc1 | 17 | – | 79.4 | > 30000 | – | – | –
c1ncc(CC2CCN(CCCOc3ccc(NC4CCCCC4)cc3)CC2)[nH]1 | 15 | – | – | 900 | – | – | –
CN(C)CCCOc1ccc(CCCN2CCC(Cc3cnc[nH]3)CC2)cc1 | 13 | – | 50.1 | > 30000 | – | – | –
c1ccc(OCCCN2CCC(Cc3c[nH]cn3)CC2)cc1 | – | – | – | 30 | – | > 20000 | –
O=C(c1ccc(OCCCN2CCC(Cc3cnc[nH]3)CC2)nc1)N1CCCCC1 | 24 | – | 20 | 2000 | – | – | –
c1cnc(-c2ccc(OCCCN3CCC(Cc4cnc[nH]4)CC3)cc2)nc1 | 45 | – | – | 6000 | – | – | –
FC1(F)CCN(Cc2ccc(OCCCN3CCC(Cc4cnc[nH]4)CC3)cc2)CC1 | 4 | – | – | 6000 | – | – | –
c1nc(CC2CCN(CCCOc3ccc(CN4CCCCC4)nc3)CC2)c[nH]1 | 10 | – | 7.94 | 3000 | – | – | –
O=C(c1ccc(OCCCN2CCC(Cc3c[nH]cn3)CC2)cc1)N1CCCCC1 | 26 | 2000 | 20 | – | – | – | –
CCN(CC)Cc1ccc(OCCCN2CCC(Cc3c[nH]cn3)CC2)cc1 | 4 | – | 1.58 | 6000 | – | – | –
c1nc(CC2CCN(CCCCOc3ccc(CN4CCCCC4)cc3)CC2)c[nH]1 | 16 | – | 15.8 | > 20000 | – | – | –
c1cncc(-c2ccc(OCCCN3CCC(Cc4cnc[nH]4)CC3)cc2)c1 | 12 | – | – | 300 | – | – | –
Nc1ncc(-c2ccc(OCCCN3CCC(Cc4c[nH]cn4)CC3)cc2)cn1 | 12 | – | 20 | 12000 | – | – | –
c1ncc(CC2CCN(CCCOc3ccc(OC4CCCCC4)cc3)CC2)[nH]1 | 6 | – | – | 300 | – | – | –
c1nc(CC2CCN(CCCOc3ccc(N4CCCCC4)cc3)CC2)c[nH]1 | 15 | – | – | 1000 | – | – | –
O=C(CCN1CCC(Cc2c[nH]cn2)CC1)Nc1ccc(CN2CCCCC2)cc1 | 40 | – | – | 9000 | – | – | –
